Legend:
[1] = test system: human ES cell-derived myocardial clusters
Excerpt: They were received in raw and recovered using a glass capillary (Vitrolife), cultured in a medium plus 20% inactivated FBS, 1% non-essential amino acids, 1% penicillin-streptomycin, and 0.2% β-mercaptoethanol in DMEM (all purchased from Invitrogen).
Collected clusters were then placed in a multi-electrode tip (Alfa Med Scientific). The day on which they were placed was set to Day 0. Clusters for which a 1st peak of an extracellular potential (FP) of 200 mV or more was acquired on Day 3 was used for data acquisition. A multi-electrode membrane potential measurement system (Nikkyo Technos Corp.) was used to acquire data.
Pre-agent application data (called ‘Before’) was acquired for 10 minutes before agent application. The agent was dissolved in deionized distilled water (DDW) or DMSO, and diluted in PBS before its application. […] Extracellular potential duration (FPD) and STV (short term variability) of the FPD was calculated from the acquired data.
A steep downward peak of the FP corresponds to the inflow of Na^+. A gradual upward peak corresponds to the outflow of K^+. The FPD was defined as the time between the Na^+ and K^+ peaks. In addition, the STV of the FPD was evaluated as the variation between beats of FPD. STV was calculated by the following equation.
[formula] The increase in the variation between the FPDs can be evaluated as an increase in the value of STV. […]

[2] = both in vivo and in vitro; cited from earlier work

position in two-dimensional plot (X: FPD score, FPD extended by 10% or more; Y: STV score, STV increased by 100% or more) [1] | SMILES | known effect on APD and STV [2]
upper right corner | CC(C)NCC(O)c1ccc(NS(C)(=O)=O)cc1 (racemic) [DL-sotalol] | increase the APD and STV
upper left corner | COc1ccc([C@@H]2Sc3ccccc3N(CCN(C)C)C(=O)[C@@H]2OC(C)=O)cc1 [Diltiazem] | 

Source: patent US9447447B2, “Method and apparatus for testing cardiotoxicity and evaluating cardiomyocytes” (National University Corporation Tokyo Medical and Dental …, priority 2010, dated 2016)
